Values of other authors in PubChem BioAssay AID1259409 (Chemical Carcinogenesis Research Information System (CCRIS), 2018).

Test system: rodent chemically induced tumor inhibition, incidence and multiplicity
Assay: CCRIS tumor inhibitor studies
Conditions: Dose [Inhibitor]: 0

Q: For `C[C@]12CCCCC1=CC[C@@H]1[C@@H]2CC[C@]2(C)C(=O)[C@H](F)C[C@@H]12`, which “tumour outcome (control, treated, inhibition, significance)” value (Carcinogen: 7,12-DIMETHYLBENZ[A]ANTHRACENE, 57-97-6, 200 UG IN 0.2 ML ACETONE 3/WK 1 HR BEFORE PROMOTER ON 2 D AND ALONE ON 1 D BEGINNING 18 D POST CARCINOGEN AND CONTINU, Route [Inhibitor]: DERMAL, Species: MOUSE, Strain/Sex: CD-1/FEMALE, Target Tissue: Type of Lesion: SKIN: PAPILLOMA, Dose [Carcinogen]: 200 NMOL IN 0.2 ML ACETONE ONCE AND MICE KEPT IN DARKENED ROOM FOR 48 HR POST INITIATION, Promoter: 12-O-TETRADECANOYLPHORBOL-13-ACETATE, 16561-29-8) is on record?
A: 92%, 70%, 24%, not calculated

Q: And the “tumour outcome (control, treated, inhibition, significance)” value (Carcinogen: AZOXYMETHANE, 25843-45-2, 200 PPM IN DIET BEGINNING PRIOR TO CARCINOGEN DOSE AND CONTINUING FOR DURATION OF STUDY (STUDY DURATION: 54 WK), Route [Inhibitor]: ORAL, Species: RAT, Strain/Sex: F344/MALE, Target Tissue: Type of Lesion: COLON: ADENOCARCINOMA, Dose [Carcinogen]: 15 MG/KG 1/WK FOR 2 WK, Promoter: NONE USED)?
A: 72%, 50%, 31%, p<0.05

Q: And the “tumour outcome (control, treated, inhibition, significance)” value (Carcinogen: AZOXYMETHANE, 25843-45-2, 200 PPM IN DIET BEGINNING PRIOR TO CARCINOGEN DOSE AND CONTINUING FOR DURATION OF STUDY (STUDY DURATION: 54 WK), Route [Inhibitor]: ORAL, Species: RAT, Strain/Sex: F344/MALE, Target Tissue: Type of Lesion: COLON: ADENOMA, Dose [Carcinogen]: 15 MG/KG 1/WK FOR 2 WK, Promoter: NONE USED)?
A: 14%, 8%, 43%, not calculated

Q: And the “tumour outcome (control, treated, inhibition, significance)” value (Carcinogen: AZOXYMETHANE, 25843-45-2, 200 PPM IN DIET BEGINNING PRIOR TO CARCINOGEN DOSE AND CONTINUING FOR DURATION OF STUDY (STUDY DURATION: 54 WK), Route [Inhibitor]: ORAL, Species: RAT, Strain/Sex: F344/MALE, Target Tissue: Type of Lesion: SMALL INTESTINE: ADENOCARCINOMA, Dose [Carcinogen]: 15 MG/KG 1/WK FOR 2 WK, Promoter: NONE USED)?
A: 50%, 28%, 44%, not calculated

Q: What about the “tumour outcome (control, treated, inhibition, significance)” value (Carcinogen: AZOXYMETHANE, 25843-45-2, 200 PPM IN DIET BEGINNING PRIOR TO CARCINOGEN DOSE AND CONTINUING FOR STUDY DURATION (STUDY DURATION: 54 WK), Route [Inhibitor]: ORAL, Species: RAT, Strain/Sex: F344/MALE, Target Tissue: Type of Lesion: SMALL INTESTINE: ADENOMA, Dose [Carcinogen]: 15 MG/KG 1/WK FOR 2 WK, Promoter: NONE USED) of the same compound?
A: 3%, 0%, 100%, not calculated

Q: And the “tumour outcome (control, treated, inhibition, significance)” value (Carcinogen: AZOXYMETHANE, 25843-45-2, 400 PPM IN DIET BEGINNING PRIOR TO CARCINOGEN DOSE AND CONTINUING FOR DURATION OF STUDY (STUDY DURATION: 54 WK), Route [Inhibitor]: ORAL, Species: RAT, Strain/Sex: F344/MALE, Target Tissue: Type of Lesion: COLON: ADENOCARCINOMA, Dose [Carcinogen]: 15 MG/KG 1/WK FOR 2 WK, Promoter: NONE USED)?
A: 72%, 61%, 15%, not calculated

Q: What about the “tumour outcome (control, treated, inhibition, significance)” value (Carcinogen: AZOXYMETHANE, 25843-45-2, 400 PPM IN DIET BEGINNING PRIOR TO CARCINOGEN DOSE AND CONTINUING FOR DURATION OF STUDY (STUDY DURATION: 54 WK), Route [Inhibitor]: ORAL, Species: RAT, Strain/Sex: F344/MALE, Target Tissue: Type of Lesion: COLON: ADENOMA, Dose [Carcinogen]: 15 MG/KG 1/WK FOR 2 WK, Promoter: NONE USED) of the same compound?
A: 14%, 6%, 57%, not calculated

Q: What about the “tumour outcome (control, treated, inhibition, significance)” value (Carcinogen: AZOXYMETHANE, 25843-45-2, 400 PPM IN DIET BEGINNING PRIOR TO CARCINOGEN DOSE AND CONTINUING FOR DURATION OF STUDY (STUDY DURATION: 54 WK), Route [Inhibitor]: ORAL, Species: RAT, Strain/Sex: F344/MALE, Target Tissue: Type of Lesion: SMALL INTESTINE: ADENOCARCINOMA, Dose [Carcinogen]: 15 MG/KG 1/WK FOR 2 WK, Promoter: NONE USED) of the same compound?
A: 50%, 17%, 66%, p<0.01

Q: And the “tumour outcome (control, treated, inhibition, significance)” value (Carcinogen: AZOXYMETHANE, 25843-45-2, 400 PPM IN DIET BEGINNING PRIOR TO CARCINOGEN DOSE AND CONTINUING FOR DURATION OF STUDY (STUDY DURATION: 54 WK), Route [Inhibitor]: ORAL, Species: RAT, Strain/Sex: F344/MALE, Target Tissue: Type of Lesion: SMALL INTESTINE: ADENOMA, Dose [Carcinogen]: 15 MG/KG 1/WK FOR 2 WK, Promoter: NONE USED)?
A: 3%, 0%, 100%, not calculated

Q: What about the “tumour outcome (control, treated, inhibition, significance)” value (Carcinogen: N-METHYL-N-NITROSOUREA, 684-93-5, 0.1% IN DIET FOR DURATION OF STUDY BEGINNING 1 WK PRIOR TO CARCINOGEN DOSE (STUDY DURATION: 187 D), Route [Inhibitor]: ORAL, Species: RAT, Strain/Sex: SPRAGUE-DAWLEY/FEMALE, Target Tissue: Type of Lesion: MAMMARY GLAND: CARCINOMA, Dose [Carcinogen]: 50 MG/KG ONCE AT 50 D OF AGE, Promoter: NONE USED) of the same compound?
A: 100%, 100%, 0%, not significant

Q: What about the “tumour outcome (control, treated, inhibition, significance)” value (Carcinogen: N-METHYL-N-NITROSOUREA, 684-93-5, 0.2% IN DIET FOR 2 WK BEGINNING 1 WK PRIOR TO CARCINOGEN DOSE (STUDY DURATION: 187 D), Route [Inhibitor]: ORAL, Species: RAT, Strain/Sex: SPRAGUE-DAWLEY/FEMALE, Target Tissue: Type of Lesion: MAMMARY GLAND: CARCINOMA, Dose [Carcinogen]: 50 MG/KG ONCE AT 50 D OF AGE, Promoter: NONE USED) of the same compound?
A: 100%, 100%, 0%, not significant

Q: What about the “tumour outcome (control, treated, inhibition, significance)” value (Carcinogen: N-METHYL-N-NITROSOUREA, 684-93-5, 0.2% IN DIET FOR DURATION OF STUDY BEGINNING 1 WK POST CARCINOGEN DOSE (STUDY DURATION: 180 D), Route [Inhibitor]: ORAL, Species: RAT, Strain/Sex: SPRAGUE-DAWLEY/FEMALE, Target Tissue: Type of Lesion: MAMMARY GLAND: CARCINOMA, Dose [Carcinogen]: 50 MG/KG ONCE AT 50 D OF AGE, Promoter: NONE USED) of the same compound?
A: 100%, 95%, 5%, not significant

Q: What about the “tumour outcome (control, treated, inhibition, significance)” value (Carcinogen: N-METHYL-N-NITROSOUREA, 684-93-5, 0.2% IN DIET FOR DURATION OF STUDY BEGINNING 1 WK PRIOR TO CARCINOGEN DOSE (STUDY DURATION: 187 D), Route [Inhibitor]: ORAL, Species: RAT, Strain/Sex: SPRAGUE-DAWLEY/FEMALE, Target Tissue: Type of Lesion: MAMMARY GLAND: CARCINOMA, Dose [Carcinogen]: 50 MG/KG ONCE AT 50 D OF AGE, Promoter: NONE USED) of the same compound?
A: 100%, 100%, 0%, not significant
